Results on 2 compounds are retold here after ChEMBL document CHEMBL4385643, “Design of a brain-penetrant CDK4/6 inhibitor for glioblastoma” (Bioorg Med Chem Lett, 2019).

In assay [1] the target is Tyrosine-protein kinase JAK2 (Homo sapiens) (UniProt O60674). The assay is described as follows: Inhibition of recombinant human GST-tagged JAK2 catalytic domain (809 to 1153+9 residues) expressed in baculovirus expression system at 0.1 uM using tyrosine-6 peptide as substrate incubated for 60 mins by Z'-LYTE assay relative to control.
The target in assay [2] is Misshapen-like kinase 1 (Homo sapiens) (UniProt Q8N4C8). Kind of assay: Inhibition of recombinant human GST-tagged MINK1 catalytic domain (1 to 320 residues) expressed in baculovirus expression system at 0.1 uM using serine/threonine-7 peptide as substrate incubated for 60 mins by Z'-LYTE assay relative to control.
For assay [3], the target named is Homeodomain-interacting protein kinase 4 (Homo sapiens) (UniProt Q8NE63). Kind of assay: Inhibition of recombinant full length human GST-tagged HIPK4 expressed in baculovirus expression system at 0.1 uM using serine/threonine-18 peptide as substrate incubated for 60 mins by Z'-LYTE assay relative to control.
Assay [4] deals with Leucine-rich repeat serine/threonine-protein kinase 2 (Homo sapiens) (UniProt Q5S007). The assay is described as follows: Inhibition of recombinant human GST-tagged LRRK2 catalytic domain (970 to 2527 amino acids) expressed in baculovirus expression system at 0.1 uM using ERM (LRRKtide) peptide as substrate incubated for 60 mins by Adapta assay relative to control.
Sequence of Leucine-rich repeat serine/threonine-protein kinase 2 (Homo sapiens) (Q5S007 whole entry, the tested form may be a part): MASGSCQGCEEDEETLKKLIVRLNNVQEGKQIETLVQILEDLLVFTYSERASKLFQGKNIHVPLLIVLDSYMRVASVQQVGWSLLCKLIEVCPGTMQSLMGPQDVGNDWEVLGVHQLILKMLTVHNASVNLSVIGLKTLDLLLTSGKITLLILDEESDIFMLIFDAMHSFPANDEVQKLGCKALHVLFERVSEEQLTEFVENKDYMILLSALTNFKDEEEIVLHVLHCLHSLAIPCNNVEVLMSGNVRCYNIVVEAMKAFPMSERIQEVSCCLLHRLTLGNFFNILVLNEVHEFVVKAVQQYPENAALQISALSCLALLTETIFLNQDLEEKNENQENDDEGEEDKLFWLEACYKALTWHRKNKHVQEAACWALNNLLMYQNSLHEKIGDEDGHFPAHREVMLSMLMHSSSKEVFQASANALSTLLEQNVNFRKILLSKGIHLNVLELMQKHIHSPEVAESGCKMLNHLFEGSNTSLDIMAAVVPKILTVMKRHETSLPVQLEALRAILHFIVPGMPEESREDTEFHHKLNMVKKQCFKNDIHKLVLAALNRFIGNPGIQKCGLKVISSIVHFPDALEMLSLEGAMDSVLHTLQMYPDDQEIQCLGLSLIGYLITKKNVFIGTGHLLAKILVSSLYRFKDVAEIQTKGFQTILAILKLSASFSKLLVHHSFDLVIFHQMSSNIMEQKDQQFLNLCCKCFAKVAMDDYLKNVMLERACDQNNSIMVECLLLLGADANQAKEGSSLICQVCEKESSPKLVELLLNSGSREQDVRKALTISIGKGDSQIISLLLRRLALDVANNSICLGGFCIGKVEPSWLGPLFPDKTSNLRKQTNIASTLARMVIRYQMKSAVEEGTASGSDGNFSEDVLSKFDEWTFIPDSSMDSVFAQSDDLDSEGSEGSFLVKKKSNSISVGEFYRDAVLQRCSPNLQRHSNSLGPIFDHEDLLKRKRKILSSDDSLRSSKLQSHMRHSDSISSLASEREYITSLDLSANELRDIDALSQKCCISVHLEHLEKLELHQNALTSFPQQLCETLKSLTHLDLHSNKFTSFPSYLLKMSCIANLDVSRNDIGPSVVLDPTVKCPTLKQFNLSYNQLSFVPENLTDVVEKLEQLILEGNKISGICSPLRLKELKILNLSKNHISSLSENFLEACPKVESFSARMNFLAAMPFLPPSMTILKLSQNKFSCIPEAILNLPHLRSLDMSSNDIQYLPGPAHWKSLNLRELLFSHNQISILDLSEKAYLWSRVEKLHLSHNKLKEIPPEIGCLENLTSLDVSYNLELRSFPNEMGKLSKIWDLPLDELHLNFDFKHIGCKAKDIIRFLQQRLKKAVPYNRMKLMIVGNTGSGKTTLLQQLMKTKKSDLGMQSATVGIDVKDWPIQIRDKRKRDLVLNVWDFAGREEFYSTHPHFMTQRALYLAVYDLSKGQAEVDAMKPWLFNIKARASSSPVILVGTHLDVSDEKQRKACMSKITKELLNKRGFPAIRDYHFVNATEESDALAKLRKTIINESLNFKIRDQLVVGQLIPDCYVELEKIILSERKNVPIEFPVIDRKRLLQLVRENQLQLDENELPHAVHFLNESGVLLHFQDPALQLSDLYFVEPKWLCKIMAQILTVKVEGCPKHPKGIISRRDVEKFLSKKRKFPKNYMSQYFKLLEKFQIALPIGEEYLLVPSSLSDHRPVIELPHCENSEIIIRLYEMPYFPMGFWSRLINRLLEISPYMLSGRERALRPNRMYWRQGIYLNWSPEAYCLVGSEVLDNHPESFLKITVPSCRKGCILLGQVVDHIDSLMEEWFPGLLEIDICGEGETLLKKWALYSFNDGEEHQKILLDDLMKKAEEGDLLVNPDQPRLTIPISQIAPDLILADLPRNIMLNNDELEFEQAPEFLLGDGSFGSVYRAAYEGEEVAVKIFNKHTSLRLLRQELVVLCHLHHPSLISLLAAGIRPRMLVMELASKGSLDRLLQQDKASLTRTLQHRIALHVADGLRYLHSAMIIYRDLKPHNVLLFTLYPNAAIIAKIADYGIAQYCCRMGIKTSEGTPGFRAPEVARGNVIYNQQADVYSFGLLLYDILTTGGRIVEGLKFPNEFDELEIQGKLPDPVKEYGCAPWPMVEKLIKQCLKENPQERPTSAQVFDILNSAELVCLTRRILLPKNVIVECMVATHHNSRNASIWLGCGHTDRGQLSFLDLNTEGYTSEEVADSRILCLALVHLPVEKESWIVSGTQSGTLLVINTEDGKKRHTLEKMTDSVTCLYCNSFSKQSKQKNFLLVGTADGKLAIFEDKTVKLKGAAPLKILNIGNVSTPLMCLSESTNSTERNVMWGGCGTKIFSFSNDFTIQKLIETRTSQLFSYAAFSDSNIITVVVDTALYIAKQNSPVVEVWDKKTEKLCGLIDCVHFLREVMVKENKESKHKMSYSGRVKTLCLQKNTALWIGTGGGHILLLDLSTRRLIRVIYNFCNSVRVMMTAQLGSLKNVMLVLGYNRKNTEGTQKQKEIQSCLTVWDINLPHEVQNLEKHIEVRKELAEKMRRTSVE
Assay [5] deals with Mitogen-activated protein kinase kinase kinase 9 (Homo sapiens) (UniProt P80192). Kind of assay: Inhibition of recombinant human GST-tagged MLK1 catalytic domain (1 to 500 residues) expressed in baculovirus expression system at 0.1 uM using serine/threonine-7 peptide as substrate incubated for 60 mins by Z'-LYTE assay relative to control.
Assay [6] addresses Tyrosine-protein kinase receptor UFO (Homo sapiens) (UniProt P30530). Kind of assay: Inhibition of recombinant full length human GST-tagged AXL expressed in insect expression system at 0.1 uM using tyrosine-6 peptide as substrate incubated for 60 mins by Z'-LYTE assay relative to control.
For assay [7], the target named is MAP kinase-activated protein kinase 5 (Homo sapiens) (UniProt Q8IW41). The assay is described as follows: Inhibition of recombinant full length human His-tagged PRAK expressed in baculovirus expression system at 0.1 uM using serine/threonine-4 peptide as substrate incubated for 60 mins by Z'-LYTE assay relative to control.
In assay [8] the target is Serine/threonine-protein kinase Sgk2 (Homo sapiens) (UniProt Q9HBY8). Kind of assay: Inhibition of recombinant human GST-tagged SGK2 catalytic domain (54 to 427 residues) expressed in baculovirus expression system at 0.1 uM using serine/threonine-6 peptide as substrate incubated for 60 mins by Z'-LYTE assay relative to control.
In assay [9] the target is Serine/threonine-protein kinase Nek1 (Homo sapiens) (UniProt Q96PY6). The assay is described as follows: Inhibition of recombinant full length human GST-tagged NEK1 catalytic domain (1 to 505 amino acids) expressed in baculovirus expression system at 0.1 uM using serine/threonine-7 peptide as substrate incubated for 60 mins by Z'-LYTE assay relative to control.
Sequence of Serine/threonine-protein kinase Nek1 (Homo sapiens) (Q96PY6 whole entry, the tested form may be a part): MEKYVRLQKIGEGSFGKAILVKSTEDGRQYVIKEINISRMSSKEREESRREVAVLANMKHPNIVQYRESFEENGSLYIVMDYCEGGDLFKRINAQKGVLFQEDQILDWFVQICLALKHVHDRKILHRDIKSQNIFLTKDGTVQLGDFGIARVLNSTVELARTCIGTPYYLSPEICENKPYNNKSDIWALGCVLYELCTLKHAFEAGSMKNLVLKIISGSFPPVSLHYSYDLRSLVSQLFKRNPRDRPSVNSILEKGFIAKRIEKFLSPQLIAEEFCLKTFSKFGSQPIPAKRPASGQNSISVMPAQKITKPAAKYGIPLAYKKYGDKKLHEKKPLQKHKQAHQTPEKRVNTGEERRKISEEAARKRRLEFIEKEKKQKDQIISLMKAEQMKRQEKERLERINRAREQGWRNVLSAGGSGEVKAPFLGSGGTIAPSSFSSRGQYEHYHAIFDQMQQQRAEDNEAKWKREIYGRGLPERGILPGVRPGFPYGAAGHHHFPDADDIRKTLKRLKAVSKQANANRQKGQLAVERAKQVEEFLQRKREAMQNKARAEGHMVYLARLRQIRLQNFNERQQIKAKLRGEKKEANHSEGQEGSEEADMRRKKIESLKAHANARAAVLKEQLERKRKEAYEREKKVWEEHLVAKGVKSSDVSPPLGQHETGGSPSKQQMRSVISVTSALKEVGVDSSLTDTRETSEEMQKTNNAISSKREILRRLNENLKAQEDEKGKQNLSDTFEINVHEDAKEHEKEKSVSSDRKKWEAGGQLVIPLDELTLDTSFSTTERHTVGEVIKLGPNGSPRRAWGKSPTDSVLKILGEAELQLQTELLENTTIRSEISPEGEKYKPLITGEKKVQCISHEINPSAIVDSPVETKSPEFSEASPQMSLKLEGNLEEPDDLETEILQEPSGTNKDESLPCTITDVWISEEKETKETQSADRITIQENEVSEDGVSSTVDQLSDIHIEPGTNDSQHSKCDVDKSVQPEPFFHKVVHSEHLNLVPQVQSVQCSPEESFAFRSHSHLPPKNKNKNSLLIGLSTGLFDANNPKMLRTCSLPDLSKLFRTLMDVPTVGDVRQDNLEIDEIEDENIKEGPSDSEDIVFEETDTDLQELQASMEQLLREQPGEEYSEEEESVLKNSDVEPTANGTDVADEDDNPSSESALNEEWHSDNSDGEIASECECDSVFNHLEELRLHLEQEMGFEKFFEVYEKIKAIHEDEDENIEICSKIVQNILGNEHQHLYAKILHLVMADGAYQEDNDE
Assay [10] deals with Protein kinase C alpha type (Homo sapiens) (UniProt P17252). The assay is described as follows: Inhibition of recombinant human GST-tagged PKCalpha expressed in insect expression system at 0.1 uM using serine/threonine-7 peptide as substrate incubated for 60 mins by Z'-LYTE assay relative to control.
In assay [11] the target is Serine/threonine-protein kinase PLK2 (Homo sapiens) (UniProt Q9NYY3). The assay is described as follows: Inhibition of recombinant full length human GST-tagged PLK2 expressed in baculovirus expression system at 0.1 uM using serine/threonine-16 peptide as substrate incubated for 60 mins by Z'-LYTE assay relative to control.
Assay [12] addresses Tyrosine-protein kinase JAK1 (Homo sapiens) (UniProt P23458). Kind of assay: Inhibition of recombinant human GST-tagged JAK1 catalytic domain (866 to 1154 residues) expressed in baculovirus expression system at 0.1 uM using tyrosine-6 peptide as substrate incubated for 60 mins by Z'-LYTE assay relative to control.
Assay [13] deals with TGF-beta receptor type-1 (Homo sapiens) (UniProt P36897). The assay is described as follows: Inhibition of tracer 178 binding to recombinant human GST-tagged TGFBR1 catalytic domain (200 to 503 residues) expressed in baculovirus expression system at 0.1 uM measured after 60 mins by Lanthascreen assay. On the technique in general: Time-resolved FRET reads energy transfer from a long-lived donor to a nearby acceptor.
Sequence of TGF-beta receptor type-1 (Homo sapiens) (P36897 whole entry, the tested form may be a part): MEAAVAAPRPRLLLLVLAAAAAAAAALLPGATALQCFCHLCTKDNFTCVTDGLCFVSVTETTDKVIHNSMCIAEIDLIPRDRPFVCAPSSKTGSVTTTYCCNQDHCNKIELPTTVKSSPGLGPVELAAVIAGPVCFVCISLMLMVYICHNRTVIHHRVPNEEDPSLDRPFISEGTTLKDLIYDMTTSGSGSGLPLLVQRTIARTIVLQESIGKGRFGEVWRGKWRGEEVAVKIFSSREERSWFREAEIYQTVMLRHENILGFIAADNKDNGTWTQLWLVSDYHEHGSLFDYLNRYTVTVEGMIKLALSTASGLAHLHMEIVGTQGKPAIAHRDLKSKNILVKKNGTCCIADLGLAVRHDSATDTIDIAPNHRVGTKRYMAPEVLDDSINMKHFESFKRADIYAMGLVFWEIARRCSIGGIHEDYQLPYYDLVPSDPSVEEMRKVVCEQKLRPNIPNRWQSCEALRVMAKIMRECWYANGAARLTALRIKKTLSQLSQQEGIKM

In assay [14] the target is Mast/stem cell growth factor receptor Kit (Homo sapiens) (UniProt P10721). The assay is described as follows: Inhibition of recombinant human His-tagged KIT (544 to 976 residues) expressed in baculovirus expression system at 0.1 uM using tyrosine-6 peptide as substrate incubated for 60 mins by Z'-LYTE assay relative to control.
The target of assay [15] is Cyclin-Y/Cyclin-dependent kinase 16 (Homo sapiens) (UniProt Q00536+Q8ND76). Kind of assay: Inhibition of tracer 236 binding to recombinant human GST-tagged CDK16/cyclin Y catalytic domain (CDK16: 108 to end, Cyclin Y: 2 to end) expressed by baculovirus in Sf9 insect cells expression system at 0.1 uM measured after 60 mins by Lanthascreen assay relative to control.
Assay [16] deals with Sphingosine kinase 1 (Homo sapiens) (UniProt Q9NYA1). Kind of assay: Inhibition of recombinant full length human GST-tagged SPHK1 expressed in baculovirus expression system at 0.1 uM using Sphingosine Lipid as substrate incubated for 60 mins by Adapta assay relative to control.
Assay [17] addresses 3-phosphoinositide-dependent protein kinase 1 (Homo sapiens) (UniProt O15530). Kind of assay: Inhibition of recombinant human His-tagged PDK1 expressed in baculovirus expression system at 0.1 uM using serine/threonine-7 peptide as substrate incubated for 60 mins by Z'-LYTE assay relative to control.
Assay [18] deals with Tyrosine-protein kinase Blk (Homo sapiens) (UniProt P51451). The assay is described as follows: Inhibition of recombinant full length human His-tagged BLK expressed in baculovirus expression system at 0.1 uM using tyrosine-1 peptide as substrate incubated for 60 mins by Z'-LYTE assay relative to control.
The target of assay [19] is Calcium/calmodulin-dependent protein kinase type IV (Homo sapiens) (UniProt Q16566). Kind of assay: Inhibition of recombinant full length human full length GST-tagged CAMK4 expressed in Escherichia coli expression system at 0.1 uM using serine/threonine-13 peptide as substrate incubated for 60 mins by Z'-LYTE assay relative to control.
In assay [20] the target is Tyrosine-protein kinase TXK (Homo sapiens) (UniProt P42681). Kind of assay: Inhibition of recombinant human GST-tagged TXK catalytic domain (260 to 527 residues) expressed in baculovirus expression system at 0.1 uM using tyrosine-6 peptide as substrate incubated for 60 mins by Z'-LYTE assay relative to control.
For assay [21], the target named is Tyrosine-protein kinase Lyn (Homo sapiens) (UniProt P07948). Kind of assay: Inhibition of recombinant full length human LYN at 0.1 uM using tyrosine-2 peptide as substrate incubated for 60 mins by Z'-LYTE assay relative to control.
The target in assay [22] is Insulin-like growth factor 1 receptor (Homo sapiens) (UniProt P08069). The assay is described as follows: Inhibition of recombinant human His-tagged IGF1R catalytic domain (960 to 1397 residues) expressed in baculovirus expression system at 0.1 uM using tyrosine-1 peptide as substrate incubated for 60 mins by Z'-LYTE assay relative to control.

Each structure is given as a SMILES string.

What is called inhibition is the drop in the measured response relative to a control, in per cent.

Sequence of 3-phosphoinositide-dependent protein kinase 1 (Homo sapiens) (O15530 whole entry): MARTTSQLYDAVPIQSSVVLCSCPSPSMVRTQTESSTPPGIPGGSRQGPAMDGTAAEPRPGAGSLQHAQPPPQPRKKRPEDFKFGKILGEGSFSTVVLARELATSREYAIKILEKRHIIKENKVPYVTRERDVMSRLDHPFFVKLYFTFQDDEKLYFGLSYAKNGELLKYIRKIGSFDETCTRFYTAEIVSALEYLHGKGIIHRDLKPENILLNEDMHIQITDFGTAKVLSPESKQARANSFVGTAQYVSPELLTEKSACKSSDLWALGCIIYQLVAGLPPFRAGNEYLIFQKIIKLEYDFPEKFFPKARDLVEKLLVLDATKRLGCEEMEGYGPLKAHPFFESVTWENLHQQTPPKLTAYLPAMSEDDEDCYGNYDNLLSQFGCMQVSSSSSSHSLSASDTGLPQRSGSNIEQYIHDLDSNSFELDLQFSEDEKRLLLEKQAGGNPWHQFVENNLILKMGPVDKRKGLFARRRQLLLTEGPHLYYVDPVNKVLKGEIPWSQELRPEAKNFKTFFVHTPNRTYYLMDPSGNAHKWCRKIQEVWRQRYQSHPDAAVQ

As for `CCN1CCN(Cc2ccc(Nc3ncc(F)c(-c4cc(F)c5nc(C)n(C(C)C)c5c4)n3)nc2)CC1` [ABEMACICLIB], the inhibition in assay [1] was found to be 6%; in assay [2], 79.5%; in [3], 30%; in assay [4], 74.6%; in assay [5], 11.5%; in assay [6], 15%. In addition, the inhibition in assay [7] came out at 5%; in assay [8], 36.5%; in assay [9], 14%; in assay [10] it was 77.5%; in [11] it was 0.5%; in assay [12] it was 2%. Also, the inhibition in [13] came out at 10.9%; in [14], 0%; in [15], 86.5%; in [16], 14.7%; in assay [17], 1%; in assay [18] it was 12.5%. For the same compound, the inhibition in assay [19] was 2.5%; in assay [20] it was 6.5%; in assay [21] it was 6%; in [22], 14%.

As for `CCN1CC2(C1)CN(c1ccc(Nc3ncc(F)c(-c4cnn5c4[C@H](C)CCCC5)n3)nc1)C2`, the inhibition in assay [1] is 18.5%; in assay [2] it was 27.5%; in [3] it was 8%; in [4], 97.5%; in [5] it was 47%; in [6], 11.5%. Besides, the inhibition in assay [7] stood at 13.5%; in assay [8] it was 27.5%; in assay [9], 0%; in [10], 33%; in assay [11], 3%; in assay [12] it was 5%. Besides, the inhibition in [13] is 16%; in [14], -0.5%; in assay [15] it was 79%; in assay [16] it was 1.5%; in assay [17], 8.5%; in assay [18], 3.5%. For the same compound, the inhibition in assay [19] is 10%; in assay [20], -1%; in assay [21], 7%; in assay [22] it was 7%.
